ChEMBL document CHEMBL3232874, “The applications of binuclear metallohydrolases in medicine: recent advances in the design and development of novel drug leads for purple acid phosphatases, metallo-β-lactamases and arginases” (Eur J Med Chem, 2014)
Square brackets hold non-standard residues; d marks the D form. Peptide text beside a SMILES is read from it. * marks the point of attachment. F2Pmp = N[C@@H](Cc1ccc(C(F)(F)P(=O)(O)O)cc1)C(=O)O; Phe(4-COOH) = N[C@@H](Cc1ccc(C(=O)O)cc1)C(=O)O; Fmoc = O=C(OCC1c2ccccc2-c2ccccc21)*

Tests used:
[1] = molecular target: T1, Fe(3+)-Zn(2+) purple acid phosphatase (Phaseolus vulgaris, UniProt P80366); experiment: Inhibition of red kidney beans purple acid phosphatase
T1 sequence (P80366 whole entry): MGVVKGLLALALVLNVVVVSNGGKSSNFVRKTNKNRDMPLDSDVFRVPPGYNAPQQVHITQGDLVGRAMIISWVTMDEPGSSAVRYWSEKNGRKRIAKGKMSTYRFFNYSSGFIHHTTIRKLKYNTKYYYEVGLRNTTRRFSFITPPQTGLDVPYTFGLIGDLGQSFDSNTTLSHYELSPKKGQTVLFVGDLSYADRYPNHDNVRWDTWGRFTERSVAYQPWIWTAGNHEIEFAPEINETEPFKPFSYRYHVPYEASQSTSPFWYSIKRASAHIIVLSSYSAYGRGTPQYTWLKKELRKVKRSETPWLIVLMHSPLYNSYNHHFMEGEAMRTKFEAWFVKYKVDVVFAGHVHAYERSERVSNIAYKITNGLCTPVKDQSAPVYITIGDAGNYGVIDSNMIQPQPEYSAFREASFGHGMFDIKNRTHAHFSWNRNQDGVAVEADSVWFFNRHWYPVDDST

[2] = Inhibition of human purple acid phosphatase
[3] = Inhibition of metallo-beta-lactamase IMP-1 (unknown origin)
[4] = Inhibition of pig purple acid phosphatase at pH 4.9; design: species or system Sus scrofa
[5] = Inhibition of pig purple acid phosphatase at pH 3.3; design: species or system Sus scrofa
[6] = Inhibition of human arginase
[7] = Inhibition of Plasmodium berghei arginase
[8] = Inhibition of metallo-beta-lactamase L1 (unknown origin)
[9] = Inhibition of metallo-beta-lactamase CphA (unknown origin)
[10] = Inhibition of metallo-beta-lactamase BcII (unknown origin)
[11] = Inhibition of metallo-beta-lactamase VIM2 (unknown origin)
[12] = Inhibition of Bacillus cereus metallo-beta-lactamase BcII
[13] = Inhibition of human recombinant purple acid phosphatase at pH 3.3
[14] = Inhibition of human recombinant purple acid phosphatase at pH 4.9
[15] = molecular target: Metallo-beta-lactamase type 2 (Bacteroides fragilis, UniProt P25910); experiment: Competitive inhibition of Bacteroides fragilis metallo-beta-lactamase CcrA
Beta-lactamase L1 = Beta-lactamase L1 (Stenotrophomonas maltophilia, UniProt P52700); experiment: Inhibition of Stenotrophomonas maltophilia metallo-beta-lactamase L1 after 5 mins
[16] = Inhibition of Bacillus cereus 5/B/6 metallo-beta-lactamase […] incubated for 1 min prior to substrate addition by spectrophotometry
[17] = Competitive inhibition of Bacillus cereus 569/H metallo-beta-lactamase BcII by Eadie-Hofstee plot analysis
[18] = Inhibition of metallo-beta-lactamase IMP-1 (unknown origin) using nitrocefin as substrate incubated for 15 mins prior to substrate addition
[19] = Inhibition of metallo-beta-lactamase CcrA (unknown origin)
[20] = Inhibition of arginase (unknown origin); design: species or system Homo sapiens
Arginase-1 = molecular target: T2, Arginase-1 (Rattus norvegicus, UniProt P07824); experiment: Inhibition of rat liver arginase
T2 sequence (P07824 whole entry): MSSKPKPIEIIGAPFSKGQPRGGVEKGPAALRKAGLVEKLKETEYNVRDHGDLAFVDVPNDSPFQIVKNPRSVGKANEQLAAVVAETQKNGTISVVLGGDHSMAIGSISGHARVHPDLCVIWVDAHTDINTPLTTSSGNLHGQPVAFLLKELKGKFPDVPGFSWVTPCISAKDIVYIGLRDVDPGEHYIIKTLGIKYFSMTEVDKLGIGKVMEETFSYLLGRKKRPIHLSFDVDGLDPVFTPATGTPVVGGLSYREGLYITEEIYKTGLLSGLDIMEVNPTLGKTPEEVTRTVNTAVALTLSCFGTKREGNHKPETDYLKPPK

[21] = Inhibition of mouse macrophage arginase

Chain of Beta-lactamase L1 (P52700 whole entry): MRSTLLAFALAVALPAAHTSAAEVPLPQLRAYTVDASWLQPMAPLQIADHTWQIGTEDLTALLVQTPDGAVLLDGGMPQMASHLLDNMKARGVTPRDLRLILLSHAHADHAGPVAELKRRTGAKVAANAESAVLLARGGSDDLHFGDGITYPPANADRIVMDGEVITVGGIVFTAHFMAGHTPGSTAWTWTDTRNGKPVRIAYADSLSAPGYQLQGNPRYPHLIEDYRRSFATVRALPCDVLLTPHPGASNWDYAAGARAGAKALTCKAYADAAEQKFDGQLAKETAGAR
Chain of Metallo-beta-lactamase type 2 (P25910 whole entry): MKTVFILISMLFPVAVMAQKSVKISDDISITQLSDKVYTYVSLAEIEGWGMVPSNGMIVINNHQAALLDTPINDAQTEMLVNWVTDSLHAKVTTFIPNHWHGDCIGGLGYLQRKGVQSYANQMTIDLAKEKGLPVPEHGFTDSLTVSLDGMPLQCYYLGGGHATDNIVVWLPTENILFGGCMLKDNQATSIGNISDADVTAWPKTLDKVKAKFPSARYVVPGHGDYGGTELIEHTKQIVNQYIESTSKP

Question: For `O=P(O)(O)CCCS`, which IC50 [1] is on record?
Answer: 160 µM

Question: Which IC50 ([2]; read-out: IC50) does the source give for `O=P(O)(O)C(Cc1ccc(-c2ccccc2)cc1)c1cccc2ccccc12` (stereo unspecified) here?
Answer: 6.3 µM

Question: For `O=P(O)(O)CS`, which IC50 [1] is on record?
Answer: 80 µM

Question: With `O[C@H](CS)[C@@H](O)CS` as the molecule, how does the INH [3] read?
Answer: 2.2 µM

Question: Which results are given for `CC(=O)Oc1cc(C[C@H](NC(=O)[C@H](CCC(=O)O)NC(=O)OCC2c3ccccc3-c3ccccc32)C(=O)N[C@@H](C)C(N)=O)ccc1OCC(=O)O`?
Answer: Ki [4]: 777 µM; Ki [5]: 413 µM

Question: With `N[C@@H](CCCC[N+](=O)[O-])C(=O)O` as the molecule, how does the Ki [6] read?
Answer: 60 µM

Question: What about the Ki [7] of the same molecule?
Answer: 11 µM

Question: Which Ki [8] does the source give for `CC(NC(=O)COc1ccccc1)C(O)C(F)(F)F` (stereo unspecified) here?
Answer: 1.5 µM

Question: And the Ki [9]?
Answer: 1.5 µM

Question: And the Ki [10]?
Answer: 1.5 µM

Question: What about the Ki [11] of the same molecule?
Answer: 1.5 µM

Question: With `C[C@H](NC(=O)[C@H](Cc1ccc(C(=O)O)cc1)NC(=O)[C@H](CCC(=O)O)NC(=O)OCC1c2ccccc2-c2ccccc21)C(N)=O` (Fmoc-Glu-[Phe(4-COOH)]-Ala-NH2) as the molecule, how does the Ki [4] read?
Answer: 161 µM

Question: What about the Ki [5] of the same molecule?
Answer: 100 µM

Question: Which IC50 [1] does the source give for `O=P(O)(O)c1ccccc1S` here?
Answer: 350 µM

Question: With `OCCS` as the molecule, how does the INH [3] read?
Answer: 12 µM

Question: Which Ki [4] does the source give for `C[C@H](NC(=O)[C@H](Cc1ccc(CC(=O)O)c(C(=O)O)c1)NC(=O)[C@H](CCC(=O)O)NC(=O)OCC1c2ccccc2-c2ccccc21)C(N)=O` here?
Answer: 279 µM

Question: What about the Ki [5] of the same molecule?
Answer: 201 µM

Question: With `O=C(O)CP(=O)(O)O` [FOSFONET] as the molecule, how does the Ki [1] read?
Answer: 590 µM

Question: With `SCc1ccccc1` [BENZENEMETHANETHIOL] as the molecule, how does the IC50 [12] read?
Answer: 9.2 µM

Question: For `CCOC(=O)CCS`, which INH [3] is on record?
Answer: 0.25 µM

Question: Which results are given for `C[C@H](NC(=O)[C@H](Cc1ccc(C(F)(F)P(=O)(O)O)cc1)NC(=O)[C@H](CCC(=O)O)NC(=O)OCC1c2ccccc2-c2ccccc21)C(=O)O` (Fmoc-Glu-[F2Pmp]-Ala-OH)?
Answer: Ki [13]: 67 µM; Ki [14]: 63 µM

Question: For `O=C(COc1ccccc1)NC(Cc1ccccc1)C(O)C(F)(F)F` (stereo unspecified), which Ki [8] is on record?
Answer: 1.5 µM

Question: And the Ki [9]?
Answer: 1.5 µM

Question: And the Ki [10]?
Answer: 1.5 µM

Question: And the Ki [11]?
Answer: 1.5 µM

Question: With `O=C(O)CS` as the molecule, how does the INH [3] read?
Answer: 0.23 µM

Question: With `c1ccc(-c2nnn[nH]2)c(-c2ccc(Cn3c4ccccc4c4ccccc43)cc2)c1` as the molecule, how does the IC50 [15] read?
Answer: 0.3 µM

Question: Which results are given for `C[C@H](NC(=O)[C@H](Cc1ccc(OC(F)(C(=O)O)C(=O)O)cc1)NC(=O)[C@H](CCC(=O)O)NC(=O)OCC1c2ccccc2-c2ccccc21)C(=O)O`?
Answer: Ki [13]: 36 µM; Ki [14]: 74 µM

Question: Which IC50 ([2]; read-out: IC50) does the source give for `O=P(O)(O)Cc1cccc2ccccc12` here?
Answer: 30 µM

Question: For `CC(S)C(=O)O` (stereo unspecified), which INH [3] is on record?
Answer: 0.19 µM

Question: Which Ki [1] does the source give for `O=C(O)CCP(=O)(O)O` here?
Answer: 160 µM

Question: Which Ki [12] does the source give for `O=C(O)C(S)c1ccccc1` (stereo unspecified) here?
Answer: 0.09 µM

Question: For `OCCCS`, which INH [3] is on record?
Answer: 2.5 µM

Question: With `O=C(O)c1ccccc1S` [THIOSALICYLIC ACID] as the molecule, how does the Ki [12] read?
Answer: 9.2 µM

Question: Which results are given for `C[C@H](NC(=O)[C@H](Cc1ccc(C(F)(C(=O)O)C(=O)O)cc1)NC(=O)[C@H](CCC(=O)O)NC(=O)OCC1c2ccccc2-c2ccccc21)C(N)=O`?
Answer: Ki [4]: 49 µM; Ki [5]: 8 µM

Question: For `O=P(O)(O)C(O)c1cccc2ccccc12` (stereo unspecified), which IC50 [2] is on record?
Answer: Not Active

Question: Which IC50 (Beta-lactamase L1) does the source give for `COC(=O)c1c(O)ccc2nc3c(C(=O)O)cccc3nc12` here?
Answer: 1 µM

Question: With `COC(=O)c1cc(SCC(NC(C)=O)C(=O)OC)cc2nc3c(C(=O)O)cccc3nc12` (stereo unspecified) as the molecule, how does the IC50 (Beta-lactamase L1) read?
Answer: 1 µM

Question: With `CC(NC(=O)COc1ccccc1)C(=O)C(F)(F)F` (stereo unspecified) as the molecule, how does the Ki [8] read?
Answer: 1.5 µM

Question: And the Ki [9]?
Answer: 1.5 µM

Question: And the Ki [10]?
Answer: 1.5 µM

Question: And the Ki [11]?
Answer: 1.5 µM

Question: Which IC50 [1] does the source give for `O=P(O)(O)CCS` here?
Answer: 3000 µM

Question: Which results are given for `O=S(=O)(N/N=C/c1c2ccccc2cc2ccccc12)c1ccc2ccccc2c1`?
Answer: Ki [16]: 0.02 µM; IC50 [3]: 1.6 µM

Question: With `O=C(COc1ccccc1)NC(Cc1ccccc1)C(=O)C(F)(F)F` (stereo unspecified) as the molecule, how does the Ki [8] read?
Answer: 1.5 µM

Question: What about the Ki [9] of the same molecule?
Answer: 1.5 µM

Question: And the Ki [10]?
Answer: 1.5 µM

Question: And the Ki [11]?
Answer: 1.5 µM

Question: What does the source list for `C[C@H](NC(=O)[C@H](Cc1ccc(C(C(=O)O)C(=O)O)cc1)NC(=O)[C@H](CCC(=O)O)NC(=O)OCC1c2ccccc2-c2ccccc21)C(N)=O`?
Answer: Ki [4]: 38 µM; Ki [5]: 6 µM

Question: For `C[C@H](NC(=O)[C@H](Cc1ccc(OCC(=O)O)c(C(=O)O)c1)NC(=O)[C@H](CCC(=O)O)NC(=O)OCC1c2ccccc2-c2ccccc21)C(N)=O`, which Ki [4] is on record?
Answer: 146 µM

Question: And the Ki [5]?
Answer: 112 µM

Question: With `O=C(c1ccccc1)C(C(=O)c1ccccc1)(c1cccc2ccccc12)P(=O)(O)O` as the molecule, how does the IC50 ([2]; read-out: IC50) read?
Answer: 1.4 µM

Question: For `CCOC(=O)CS`, which INH [3] is on record?
Answer: 1.4 µM

Question: With `O[C@H](CS)[C@H](O)CS` as the molecule, how does the INH [3] read?
Answer: 0.55 µM

Question: Which INH [3] does the source give for `O=C(O)CCS` here?
Answer: 1.2 µM

Question: Which Ki [12] does the source give for `COc1ccc(C(S)C(=O)O)cc1` (stereo unspecified) here?
Answer: 0.09 µM

Question: For `CC(=O)N[C@H]1[C@H](O[C@H]2C[C@@H](C(=O)NCCS(=O)(=O)O)N[C@@H]2CO)O[C@H](CO)[C@@H](OS(=O)(=O)O)[C@@H]1O` [BULGECIN A], which IC50 [17] is on record?
Answer: 230 µM

Question: For `O=C(O)[C@@H](Cc1ccc2c(c1)OCO2)[C@H](Cc1ccc2c(c1)OCO2)C(=O)O`, which IC50 [18] is on record?
Answer: 0.009 µM

Question: With `COC1OC(C)=Cc2oc3cc(O)c(O)c(C(=O)O)c3c(=O)c21` (stereo unspecified) as the molecule, how does the Ki [10] read?
Answer: 79 µM

Question: And the Ki [19]?
Answer: 3.4 µM

Question: And the Ki [3]?
Answer: 17 µM

Question: Which Ki [13] does the source give for `C[C@H](NC(=O)[C@H](Cc1ccc(OC(C(=O)O)C(=O)O)cc1)NC(=O)[C@H](CCC(=O)O)NC(=O)OCC1c2ccccc2-c2ccccc21)C(=O)O` here?
Answer: 14 µM

Question: And the Ki [14]?
Answer: 26 µM

Question: For `O=P(O)(O)CP(=O)(O)O` [MEDRONIC ACID], which Ki [1] is on record?
Answer: 140 µM

Question: With `O=C(O)C(S)c1ccc(F)cc1` (stereo unspecified) as the molecule, how does the Ki [12] read?
Answer: 0.09 µM

Question: Which IC50 [8] does the source give for `O=C(O)c1cccc(C(=O)O)n1` [DIPICOLINIC ACID] here?
Answer: 7.8 µM

Question: And the IC50 [10]?
Answer: 21.8 µM

Question: Which Ki [20] does the source give for `NNC(N)=S` [THIOSEMICARBAZIDE] here?
Answer: 100 µM

Question: For `N=C(NO)NCC[C@H](N)C(=O)O` [NOR-NOHA], which IC50 (Arginase-1) is on record?
Answer: 2 µM

Question: And the IC50 [21]?
Answer: 50 µM
